Measured values taken from patent US10383806B2, “Compositions including sesamin, methods of making and using the same in skin anti-aging and skin lightening applications” (Access Business Group International LLC, priority 2015, dated 2019).

Assays:
Type in all cases: cell-based
[1] = target: T1, Gal4-PPARγ-LBD fusion protein (Homo sapiens, UniProt P37231); assay: PPARγ activation luciferase reporter assay (Gal4-PPARγ-LBD, CHO-K1 cells); conditions: 18-24 hours, FIG. 6, n=2
T1 construct: The PPARγ-LBD (residues 203-477) was PCR amplified from human MGC: 5041; expressed in transfected cells
T1 sequence (P37231 203-477 isoform P37231-2): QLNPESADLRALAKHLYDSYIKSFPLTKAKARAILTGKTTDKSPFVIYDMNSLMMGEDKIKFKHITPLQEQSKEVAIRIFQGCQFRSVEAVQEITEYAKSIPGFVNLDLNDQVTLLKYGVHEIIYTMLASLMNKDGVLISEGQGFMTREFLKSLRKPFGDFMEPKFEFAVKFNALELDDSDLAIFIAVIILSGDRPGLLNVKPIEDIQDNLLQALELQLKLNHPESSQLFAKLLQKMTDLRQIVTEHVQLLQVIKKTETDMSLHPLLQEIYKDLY
Procedure: Troglitazone (positive control) was purchased from Sigma Corp. Sesamin sample was purchased from Virun Chemicals and a stock solution at a concentration of 100 mg/mL was prepared in 70% Dimethyl Sulfoxide (DMSO) and diluted to the indicated concentrations as shown in the figure. The final concentration of DMSO was maintained at 0.05% or lower. Stock solutions of troglitzone and sesamin samples were solubilized and diluted in DMSO prior to dilution in Dubelco's minimum essential media (DMEM) containing 0.5% Bovine serum Albumin (BSA) for testing. To study the activation of PPARγ in a luciferase reporter assay, a Gal4-PPARγ-ligand-binding domain (LBD) vector was created in a modified pF[…] (BIND) vector (Promega Inc). The PPARγ-LBD (residues 203-477) was PCR amplified from human MGC: 5041 (pSPORT6; Open Biosystems Inc.) and ligated into the pBIND3 vector forming a Gal4-PPARγ-LBD fusion protein. […] Luciferase was quantified using an activity assay from Biotium Inc. Briefly, at time of analysis, cells in white-walled 96-well plates were rinsed once using 50 μL of DPBS, then lysed with 20 μL of 1× passive lysis buffer. […] Reconstituted, room temperature D-luciferin was added (100 μL per well) and light emission was immediately read using an M-5 spectrophotometer (Molecular Devices, Inc.).

Melan-a cells = assay: Melanin inhibition assay in Melan-a cells; conditions: 4 days, concentrations of FIG. 5
Procedure: Melan-a cells seeded at a density of 5×10^4 cells per well were grown in a 24 well plate. Sesamin complex (S1) (at the concentrations indicated in the legend of FIG. 5) was dissolved in (DMSO) such that the final concentration of DMSO in the culture medium was maintained at 0.05%. Sesamin complex and Phenylthiourea (PTU) was added to the cells in triplicate and incubated for 2 days following which the cells were again treated with compounds supplemented with fresh medium. PTU at a concentration of 60 ug/ml was used as a positive inhibitor control in the melanin inhibition assay. Two days later, melanin was extracted and quantitated by normalizing with the protein content. After 4 days, melanin was extracted and cleared of the cell debris from each of the wells were dissolved by treating with 2N NaOH in 20% DMSO and incubating the samples for 60 min at 55° C. The melanin content in each sample was determined by measuring absorbance at 490 nm. Data were presented as % melanin content normalized to protein content in untreated wells compared to % melanin content extracted from samples.

[2] = tested on: antioxidant response elements; assay: Anti-oxidant response element (ARE) luciferase reporter assay in stable HepG2 cells; conditions: 48 hours, FIG. 4
Text: Yet other embodiments relate to a method of decreasing a skin anti-inflammatory response comprising applying to the skin a composition in a cosmetically effective amount sufficient to decrease the skin anti-inflammatory response, wherein the composition comprises an amount of sesamin, individually or in combination with at least one other plant ingredient or plant extract from Pistacia (e.g., Pistacia lentiscus), Leontopodium (e.g., Leontopodium alpinium), Spirulina (e.g., Spirulina platensis), Oroxylum (e.g., Oroxylum indicum), Schizandra (e.g., Schizandra chinesis), Moringa (e.g., Moringa pterygosperma), Houttuynia (e.g., Houttuynia cordata), Isodon (e.g., Isodon japonicus), and Saxifraga (e.g., Saxifraga stolonifera), or mixtures thereof, and at least one pharmaceutically or cosmetically acceptable vehicle. […] Use of compositions that are capable of decreasing a skin anti-inflammatory response in the skin may result in improvement of the appearance of skin or at least one sign of aging in skin. Sesamin complex was dissolved in 70% DMSO and finally diluted […] in MEM containing Myrosinase (0.625 U/mL) and Ascorbic Acid (350 uM) and the final concentration of DMSO was 0.14%. […] The cells were grown in minimum essential media (MEM) with 10% fetal bovine serum and 150 ug/mL of hygromycin in a humidified atmosphere containing 5% CO2 at 37 C. For the assay, the cells were seeded at a density of 31,250 cells per well in a 96-well, white-walled, collagen coated plate. The following day, the media was removed and fresh growth media was added. After 24 hours, the cells were treated with test compounds for 48 hours (100 ug/mL, 50 ug/mL, 25 ug/mL, 12.5 ug/mL, and […]), lysed and the amount of luciferase produced was measured using a luciferase activity assay. Data were captured as relative luminescence units (RLUs) using an M5 Spectrophotometer (Molecular Devices, Inc).

c1cc2c(cc1[C@H]1OC[C@H]3[C@@H]1CO[C@@H]3c1ccc3c(c1)OCO3)OCO2 [sesamin]
activation of PPARγ (percent of control response) ([1]; sesamin at 70% (μg/mL)): dose-dependent activation of PPARγ
activation of PPARγ (percent of control response) ([1]; sesamin at 90% (μg/mL)): dose-dependent activation of PPARγ
melanin inhibition (% melanin content normalized to protein content) (Melan-a cells): dose dependent melanin inhibition
anti-oxidant response (% Response) ([2]; 50 ug/mL, second highest response): activation of anti-oxidant pathways
anti-oxidant response (% Response) ([2]; 100 ug/mL): highest anti-oxidant response
anti-oxidant response (% Response, luciferase RLU normalized to untreated 0% and sulforophane 100%) ([2]; HepG2 ARE-luciferase cells, 6.75-100 ug/mL): dose-dependent anti-oxidant response
